The values that follow come from patent publication US20250195508A1, “COMPOUNDS AND COMPOSITIONS FOR ANITMALARIAL THERAPEUTIC AND PROPHYLACTIC USE” (UNIVERSITY OF CENTRAL FLORIDA RESEARCH FOUNDATION, INC., priority 2022, published 2025).

Assay [1] relates to P. falciparum Dd2. As to the kind of experiment: 72 h SYBR Green I assay (Dd2 Proliferation Assay). It counts as cell-based. The following applies: Plasmodium falciparum, DD2; SYBR Green I assay; Table 4; read-out: PfDd2 EC50 (nM) ± SD. On the procedure:
Several analogs were synthesized based on the structure of TL5-135 for further study. […] For the data in Table 1, compounds were subjected to in vitro biochemical kinase assays done using recombinant human ephrin type-A receptor 2 (EPHA2) (expressed in insect cells) in a Z′-LYTE® FRET-based kinase assay. P. falciparum Dd2 EC50 was determined using the standard 72 hour SYBR Green I assay (Dd2 Proliferation Assay) as known in the art. […] The structures of compoundsTL5-134, TL5-139, and TL5-145 are shown below.
In vitro biochemical kinase assays were done using recombinant human EPHA2 (expressed in insect cells) in a Z′-LYTE® FRET-based kinase assay. P. falciparum Dd2 EC50 was determined using the standard 72 h SYBR Green I assay.
Asynchronous blood stage P. falciparum Dd2 cultures were plated at 1% parasitemia and 1% hematocrit in a 96-well plate and incubated with serial dilutions of compound for 72 hours at 37° C. in 5% CO2. DMSO concentrations were kept at a sub-lethal percentage (<0.2%). Five micromolar chloroquine was used as a negative parasite growth control. Plates were then frozen at −80° C. and thawed, and 100 μL SYBR Green I-containing lysis buffer (20 mM Tris-HCl, 5 mM EDTA, 0.8% Triton X-100, 0.08% saponin, and 0.0001% SYBR Green I) was added to the wells. After incubation for 45 minutes at room temperature protected from light, fluorescence emission was read with a multimode microplate reader, at 485 nm excitation and 530 nm emission. Results were normalized using untreated and chloroquine-treated controls, and EC50 was determined with CDD Vault.
To establish the utility of kinase inhibitor compounds synthesized in the Gray laboratory as a source of novel antimalarial activities, the libraries (containing 1,100 compounds) were screened using the well-established SYBR Green I-based fluorescence assay as known in the art. This screen yielded 34 compounds with EC50<500 nM in the CQ^R Dd2 strain. These hits were subjected to counter-screening against human HepG2 cells using CellTiter 96® AQueous (Promega™) MTS-based cell proliferation assay to identify asexual and liver stage antiplasmodial hits.
(§1) P. falciparum Dd2 EC50 was determined using SYBR Green I assay. For the selectivity index ([…]) cytotoxicity was determined using CellTiter 96® AQueous MTS. The liver stage assay was performed using P. berghei luciferase expressing parasites. All assays were performed with technical quadruplicates and 3 biological replicates. Assays have a Z′ factor >0.7.

Assay [2] relates to P. falciparum Dd2. The assay is described as follows: Rate of killing assay. It counts as cell-based. The note with it: 10×EC50, 12-hour exposure then wash off. How it is done: Asynchronous P. falciparum Dd2 cultures were plated at 1% parasitemia, 4% hematocrit into a 24-well plate, incubated at 37° C. in 5% CO2. Wells were treated with 10×EC50 of compound for 12, 24, or 48 hours before the compound was removed. Every 24 hours thereafter for 4 days total, culture samples were washed in 0.5% BSA and stained with 1×SYBR Green I and 60 μM MitoTracker Deep Red FM for 20 minutes at 37° C. After another wash in 0.5% BSA, samples were resuspended in PBS and analyzed via flow cytometry with a CytoFLEX S™, with 100,000 events recorded per sample. For gating, the following controls were used: uninfected RBCs, untreated culture, DHA-treated culture, and untreated culture without MitoTracker stain. Viable parasite percentage was determined by finding the fraction of SYBR Green/MitoTracker double positive cells from the total events. Analysis was performed with FlowJo software Version 10.
Asynchronous cultures of P. falciparum Dd2 parasites were treated with 10×EC50 of the indicated compound for 12 hours prior to compound wash off. Flow cytometry with SYBR Green I (nuclear dye) and Mitotracker Deep Red FM (mitochondria staining) was done after compound wash-off every 24 hours after for […] (100,000 events/sample) to track parasitemia (data from 3 biological replicates±SEM).

In assay [3] the test system is P. berghei luciferase expressing parasites. The assay is described as follows: Liver stage assay with luciferase expressing parasites. Format: cell-based. The note with it: Plasmodium berghei, read-out: Liver Stage EC50 (nM) ± SD. How it is done:
as §1

The test system of the next assay is P. berghei ANKA. The assay is described as follows: Treatment of established P. berghei ANKA luciferase infection in mice, IVIS imaging. Format: in vivo. The note with it: 50 mg/kg p.o. once daily for 4 days from 72 hours post-infection; imaging day 7. How it is done:
Mice infected with P. berghei ANKA (10^3 iRBC) expressing luciferase were treated with 50 mg/kg TL5-135 or chloroquine orally once daily 72 hours post-infection for 4 days. Imaging was done 7 days after infection following a 150 mg/kg D-luciferin injection with an IVIS.

For the next assay, the system named is P. falciparum strain Dd2. As to the kind of experiment: Stage specificity assay. It counts as cell-based. The note with it: for Stage specific action, treated at early ring stage: 400 nM (5×EC50) at 6 hours post infection for 12 hours. On the procedure: Asexual stage P. falciparum cultures were synchronized by MACS magnetic column, followed 3 hours later by treatment with 5% sorbitol to select for rings. Six hours after invasion, parasites were plated onto a 96-well plate at 1% parasitemia and 1% hematocrit, maintained at 37° C. in 5% CO2, and compound was added at 5×EC50 to the 6 HPI wells. Every 12 hours, until reinvaded rings (54 HPI), thin blood smear slides for Giemsa-stain were taken, and samples were washed and fixed in 4% paraformaldehyde in PBS with 0.04% glutaraldehyde. At the conclusion of the timepoints, all samples were permeabilized with 0.25% Triton X-100 before being treated with 50 μg/mL RNase A and stained with 500 nM YOYO-1. Samples were then washed, and flow cytometric analysis was performed with a CytoFLEX S™, collecting 100,000 events per sample. Analysis was performed with FlowJo™ software Version 10.
The stage specific action of the prioritized hits was determined as follows. Synchronized cultures of P. falciparum strain Dd2 were exposed to 400 nM (5×EC50) compound at 6 hours post infection for 12 hours and fixed samples labeled with YOYO-1 dye were analyzed by flow cytometry and microscopy using Giemsa-stained thin smears.

Molecules are shown by their SMILES. Entries after “also recorded” stand apart in the source; their conditions may differ.

Regarding `CCN1CCN(Cc2ccc(NC(=O)c3cc(Cl)cc(NC(=O)c4cncc(-c5cccs5)c4)c3)cc2C(F)(F)F)CC1` [TL5-135], the concentration for a half-maximal effect (EC50) came out at 80 ± 8 nM in the assay on P. falciparum Dd2 [1] and 108 ± 35 nM in assay [3]. The Killing profile result is “pronounced irreversible killing” in the assay on P. falciparum Dd2 [2] and “exhibited a killing effect” with P. falciparum Dd2 [2] (listed as TL-135). Moreover, the “Effect on established P. berghei infection” value in the assay on P. berghei ANKA is on record as “eliminates established P. berghei ANKA infection; also recorded: eliminate established Plasmodium. berghei infections in mice”. The entries for the “Stage specific action, treated at early ring stage” value in the assay with P. falciparum strain Dd2 and in the assay on P. falciparum strain Dd2 (listed as TL-135) were “blocks ring to trophozoite maturation” and “block ring to trophozoite maturation”, respectively. Also, the “Stage specific action, added at trophozoite and schizont stages” value with P. falciparum strain Dd2 (data not shown) is “blocks maturation of asexual parasites”.
